In US10246425B2, “3,5-diamino-6-chloro-N-(N-(4-phenylbutyl)carbamimidoyl) pyrazine-2-carboxamide compounds” (Parion Sciences, Inc., priority 2012, dated 2019):

What was measured:
[1] = tested on: sheep; assay: Mucociliary clearance (MCC) studies in sheep; format: in vivo
Source text: Assay 2. Mucociliary Clearance (MCC) Studies in Sheep

[2] = Plasma potassium in sheep of the MCC study (marker for hyperkalemia)
Experimental: The animal model that has been used most often to measure changes in MCC is the sheep model. The effect of compounds for enhancing mucociliary clearance (MCC) can be measured using an in vivo model described by Sabater et al., Journal of Applied Physiology, 1999, pp. 2191-2196, incorporated herein by reference. In these studies, adult sheep were restrained and nasally intubated with an endotracheal tube. Aerosolized test articles were administered over 10-15 minutes to sheep. Radiolabeled ^99mTc-sulfur colloid (TSC, 3.1 mg/mL; containing approximately 20 mCi) was then administered at a specified time four or eight hours after test article. The radiolabeled aerosol was administered through the endotracheal tube for about 5 minutes. The sheep were then extubated, and total radioactive counts in the lung were measured every 5 minutes for a 1-hour observation period. The rate of radiolabel clearance from the lung is representative of the MCC rate in the animal. The advantage of this system is that it closely simulates the human lung environment. The model also allows for the collection of simultaneous PK/PD information through plasma and urine sampling over the test period. There are also several techniques to measure the drug concentrations on the airway surface during the MCC measurements. These include the collection of exhaled breath condensates or a filter paper method to obtain ASL via bronchoscopy.
The ovine model described above was used to evaluate the in vivo effects (efficacy/durability) of aerosol-delivered Compound II-d on MCC. Treatments consisting of either 4 mL of Compound II-d, Comparative Example 1, (S)-3,5-diamino-6-chloro-N—(N-(4-(4-(2,3-diamino-3-oxopropoxy)phenyl)butyl)carbamimidoyl)pyrazine-2-carboxamide, vehicle (sterile distilled H2O), or test agent in combination with HS were tested. To determine if combining HS with Compound II-d MCC, HS was administered immediately following Compound II-d administration. […] Radioactive counts were measured in a central region in the right lung at 5 min intervals for one hour with a gamma camera. […]

[3] = tested on: human bronchial epithelial (HBE) cells; assay: Airway surface liquid drug (ASL) clearance and metabolism by human airway epithelium; format: in vitro ADME; conditions: for % of Apical Mass as Metabolites (2 h) / % of Initial Apical Mass on Basolateral Side (2 h) / % on Basolateral Side as Metabolites (2 h): 25 μL of 25 μM apical
Experimental: Assay 3. Airway Surface Liquid Drug (ASL) Clearance and Metabolism by Human Airway Epithelium
(§1) The disappearance of Compound II-d from the apical surface and airway epithelial metabolism were assessed in human bronchial epithelial (HBE) cells (Table 3). In these experiments 25 μL of a 25 μM solution of ENaC blocker was added to the apical surface of HBE cells grown at an air/liquid interface, and the drug concentration in the apical and basolateral compartment was measured over 2 h by UPLC.
as §1, with “Therefore, the compounds of Formula (A) have a longer half-life on mucosal surfaces compared to these know compounds as evidenced by the data shown in Table 4. The” for “The”, “HBE and compared to Comparative Example 1” for “human bronchial epithelial (HBE) cells”, “4).” for “3).”

[4] = tested on: Primary CBE cells; assay: Airway hydration and sodium channel block (in vitro model): surface liquid retention; format: cell-based, canine; conditions: for surface liquid retained on apical surface (% initial volume): 50 μl buffer, 10 μM
Experimental: Assay 4. Airway Hydration and Sodium Channel Block (In Vitro Model)
Primary CBE cells are plated onto collagen-coated, porous membranes maintained at an air-liquid interface to assess maintenance of surface liquid volume over time. At the start of the experiment, each 12 mm snapwell insert was removed from the plate containing air-liquid interface culture media, blotted dry, weighed, and 50 μL of vehicle (0.1% DMSO), or ENaC blocker (10 μM in 0.1% DMSO) applied to the apical surface and the mass was recorded. The inserts were immediately returned to a transwell plate (500 μL, Krebs Ringer Bicarbonate (KRB), pH 7.4 in lower chamber) and placed in a 37° C., 5% CO2 incubator. To reduce artifact due to an apical carbohydrate osmotic gradient upon water loss, glucose was not included in the apical buffer. Compound (1a) was tested and compared to vehicle, and the mass of ASL was monitored serially from 0-8 or 24 h. The mass of surface liquid was converted to volume in μL. Data are reported as % initial volume (100%=50 μL).
The duration of sodium transport inhibition was determined indirectly by measuring the buffer retained after a 50 μl volume of experimental buffer was added to the apical surface of CBE cells.

[5] = Table 5: sheep MCC 4 h post-dose, 24 nmol/kg (300 μM)
[6] = Table 5: sheep MCC 4 h post-dose, 240 nmol/kg (3 mM)
[7] = Table 4: HBE cells, 2 h, mean ± SD
[8] = Table 4: HBE cells, 2 h, parent only
[9] = Table 5: sheep MCC 4 h post-dose, 0.024 nmol/kg (300 nM)
[10] = sheep MCC 4 h post-dose, 0.024 nmol/kg (300 nM) aerosol, mean ± SD (n)
[11] = sheep MCC 4 h post-dose, 0.24 nmol/kg (3 μM) aerosol, mean ± SD (n)
[12] = HBE cells, 2 h incubation on the apical surface (37° C.), UPLC

In the case of `N=C(NCCCCc1ccc(OC[C@H](N)C(N)=O)cc1)NC(=O)c1nc(Cl)c(N)nc1N` [Comparative Example 1, (S)-3,5-diamino-6-chloro-N—(N-(4-(4-(2,3-diamino-3-oxopropoxy)phenyl)butyl)carbamimidoyl)pyrazine-2-carboxamide, reference compound], the ED50 ([1]; Ovis aries, sheep MCC 4 h post-dose, slope, AUC and Maximum Clearance, read-out: ED50 in the sheep MCC model) is reported as about 0.24 µmol/kg, the “AUC (% CI × h)” value [1, 5] is reported as 6.9 ± 1.0 (3) % CI × h and the “Initial Slope (4.0-4.5 h)” value [1, 5] is reported as 14.5 ± 1.3 (3). For the same compound, the “AUC (% CI × h)” value [1, 6] was 14.1 ± 2.2 (6) % CI × h, the “Initial Slope (4.0-4.5 h)” value [1, 6] was 32.2 ± 7.3 (6) and the “MCC Highest Submaximal Dose” value ([1]; sheep) was 3 mM. For the same compound, the “ED50 in the sheep MCC model (concentration of dosing solution)” value ([1]; sheep MCC 4 h post-dose) was about 3000 µM, the “Top Dose in Sheep with no Elevation of Plasma Potassium” value [2] was 300 µM and the “elimination from the apical side” value ([3]; HBE cells, 2 h) was “most of Comparative Example 1 was eliminated from the apical side”. For the same compound, the “metabolized to the less active carboxylic acid” value ([3]; HBE cells, 2 h, apical side) was 83%, the “% of Apical Mass as Metabolites (2 h)” value [3, 7] was 83.0 ± 3.5% and the “% of Initial Apical Mass on Basolateral Side (2 h)” value [3, 7] was 8.3 ± 0.2^ %. The “% on Basolateral Side as Metabolites (2 h)” value (“% on Basolateral Side” below) [3, 7] was 94.7 ± 1.0%, the “% of Initial Apical Mass on Basolateral Side as Parent (2 h)” value [3, 8] was “(1% Parent)” and the “% of Initial Drug Mass on Apical Side as Parent (2 h)” value [3, 8] was “(8% Parent)”.

For `N=C(NCCCCc1ccc(CC[C@H](NCCCN(C[C@H](O)[C@@H](O)[C@H](O)[C@H](O)CO)C[C@H](O)[C@@H](O)[C@H](O)[C@H](O)CO)C(N)=O)cc1)NC(=O)c1nc(Cl)c(N)nc1N` [II-d, 3,5-diamino-N—(N-(4-(4-((S)-4-amino-3-(3-(bis((2S,3R,4R,5R)-2,3,4,5,6-pentahydroxyhexyl)amino)propylamino)-4-oxobutyl)phenyl)butyl)carbamimidoyl)-6-chloropyrazine-2-carboxamide], the “AUC (% CI × h)” value [1, 9] was 11.5 ± 0.9 (4) % CI × h, the “Initial Slope (4.0-4.5 h)” value [1, 9] was 26.5 ± 1.4 (4) and the “MCC Highest Submaximal Dose” value ([1]; sheep) was 0.0003 mM. The “potency in sheep MCC relative to Comparative Example 1 (fold lower dose / times more potent)” value ([1]; sheep MCC 4 hours post-dose) was 10,000, the “AUC (% CI - h)” value [1, 10] was 11.5 ± 0.9 (4) % CI - h and the “Initial Slope (4.0-4.5 h)” value [1, 10] was 26.5 ± 1.4 (4). For the same compound, the “AUC (% CI - h)” value [1, 11] was 19.8 ± 1.4 (4) % CI - h, the “Initial Slope (4.0-4.5 h)” value [1, 11] was 41.9 ± 3.7 (4) and the ED50 dose ([1]; sheep MCC four hour post-dosing) was “approximately 0.024 nmo/kg”. For the same compound, the “percentage mucus clearance over time (FIG. 6)” value ([1]; sheep MCC, clinically relevant dose range) was “maximal effect”, the “MCC effect at the top of the dose response curve” value ([1]; sheep, 0.24 nmol/kg dose) was “maximum (100%) MCC effect” and the “effect on MCC compared to vehicle control” value ([1]; sheep, four hour post-dosing, all doses tested (0.024, 0.24 and 2.4 nmol/kg)) was “enhanced MCC compared to vehicle control”. The “Therapeutic Index, times greater renal safety than Comparative Example 1” value [2] was 10,000-100,000, the “Top Dose in Sheep with no Elevation of Plasma Potassium” value [2] was 300 µM and the “surface liquid retained on apical surface (% initial volume)” value ([4]; 8 hours) was 112±11%. For the same compound, the “surface liquid retained on apical surface (% initial volume)” value ([4]; 24 hours) was 70.6±8.0%, the “loss of surface liquid relative to the 8-hour measure” value ([4]; 24 hours) was 16% and the “compound detectable on the basolateral side” value [3, 12] was “no Compound II-d was detectable on the basolateral side”. For the same compound, the “metabolites on the apical or basolateral sides” value [3, 12] was “no metabolites were detected”, the “% of Apical Mass as Metabolites (2 h)” value ([3]; Table 3: HBE cells, 2 h) was “None” and the “% on Basolateral Side” value ([3]; Table 3: HBE cells, 2 h) was “None”. The “% of Initial Apical Mass on Basolateral Side (2 h)” value ([3]; Table 3: HBE cells, 2 h, mean ± SD) was 1.6 ± 0.15%, the “% of Apical Mass as Metabolites (2 h)” value [3, 7] was “None” and the “% of Initial Apical Mass on Basolateral Side (2 h)” value [3, 7] was 1.6 ± 0.15%. For the same compound, the “% on Basolateral Side” value [3, 7] was “None”.
